The assay addresses His-tagged recombinant human Gal-3 (hGal-3) (Homo sapiens (Human), UniProt P17931). The experiment in a line: Gal-3 HTRF assay (His-tagged hGal-3 binding to B-ASF). (Time-resolved FRET reads energy transfer from a long-lived donor to a nearby acceptor.)
[1] abbreviates: HTRF, hGal-3 15 nM, B-ASF 15 nM, read-out: hGal-3 IC50.

The structures appear in SMILES notation. Read-outs that look alike come from different tables or passages of the source.
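Also: compounds preincubated 30 min with hGal-3, then 1 h with B-ASF, detection via terbium anti-His antibody and streptavidin d2. Control with B-ASF counts as full signal, omitting B-ASF as background.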

Chain of His-tagged recombinant human Gal-3 (hGal-3) (P17931 whole entry): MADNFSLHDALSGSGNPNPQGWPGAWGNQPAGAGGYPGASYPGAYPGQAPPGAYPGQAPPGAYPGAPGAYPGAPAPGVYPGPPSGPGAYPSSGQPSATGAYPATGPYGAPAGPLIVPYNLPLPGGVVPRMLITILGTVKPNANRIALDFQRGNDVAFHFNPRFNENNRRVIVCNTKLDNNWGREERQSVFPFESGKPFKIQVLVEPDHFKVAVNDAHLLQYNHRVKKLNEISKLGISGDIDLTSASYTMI

`OC[C@H]1O[C@@H](c2nncn2-c2ccc3c(c2)OCCO3)[C@H](O)[C@@H](n2cc(-c3cc(F)c(F)c(F)c3)nn2)[C@H]1O` [Example 96]: the IC50 (as a rule, the concentration that gives 50% inhibition) under setting [1] is 290 nM.

With `OC[C@H]1O[C@@H](c2ncnn2-c2ccc(Cl)c(Cl)c2)[C@H](O)[C@@H](n2cc(-c3cc(F)c(F)c(F)c3)nn2)[C@H]1O` [Example 21], under setting [1], the IC50 came to 79 nM.

Turning to `COc1ccc(Cl)cc1-n1nc(C)nc1[C@H]1C[C@@H](n2cc(-c3cc(F)c(F)c(F)c3)nn2)[C@@H](O)[C@@H](CO)O1` [Example 183, (2R,3R,4R,6R)-6-(1-(5-chloro-2-methoxyphenyl)-3-methyl-1H-1,2,4-triazol-5-yl)-2-(hydroxymethyl)-4-(4-(3,4,5-trifluorophenyl)-1H-1,2,3-triazol-1-yl)tetrahydro-2H-pyran-3-ol], under setting [1], the half-inhibitory concentration (IC50) was determined as 160 nM.

Turning to `OC[C@H]1O[C@@H](c2nncn2-c2cnc3ccccc3c2)[C@H](O)[C@@H](n2cc(-c3cc(F)c(F)c(F)c3)nn2)[C@H]1O` [Example 123], the IC50 under setting [1] worked out at 100 nM.

For `Cc1nc2ccc(-n3ncnc3[C@@H]3O[C@H](CO)[C@H](O)[C@H](n4cc(-c5cc(F)cc(F)c5)nn4)[C@H]3O)cc2s1` [Example 215], the IC50 (read-out: hGal3 IC50) turned out to be 140 nM.

On to `OC[C@H]1O[C@@H](c2ncnn2Cc2cccc(Cl)c2)[C@H](O)[C@@H](n2cc(-c3cc(F)c(F)c(F)c3)nn2)[C@H]1O` [Example 22], for which the IC50 under setting [1] is 1110 nM.

Turning to `Cc1nc2ccc(-n3ncnc3[C@@H]3O[C@H](CO)[C@H](O)[C@H](n4cc(-c5ccc(C(F)(F)F)c(F)c5)nn4)[C@H]3O)cc2s1` [Example 209], under “read-out: hGal3 IC50”, the IC50 was 80 nM.

`CCOC(=O)Nc1cc(-c2cn([C@H]3[C@@H](O)[C@@H](CO)O[C@@H](c4ncnn4-c4ccc5nc(C)sc5c4)[C@@H]3O)nn2)cc(F)c1F` [Example 220]: under “read-out: hGal3 IC50”, the IC50 is 70 nM.

Consider `O=C1CCc2cc(-n3cnnc3[C@@H]3O[C@H](CO)[C@H](O)[C@H](n4cc(-c5cc(F)c(F)c(F)c5)nn4)[C@H]3O)ccc2N1` [Example 121], for which the IC50 under setting [1] amounted to 260 nM.

In the case of `Cc1nc2ccc(-n3c(C)nnc3[C@H]3C[C@@H](n4cc(-c5cc(F)c(F)c(F)c5)nn4)[C@@H](O)[C@@H](CO)O3)cc2s1` [Example 280, (2R,3R,4R,6R)-2-(hydroxymethyl)-6-(5-methyl-4-(2-methylbenzo[d]thiazol-6-yl)-4H-1,2,4-triazol-3-yl)-4-(4-(3,4,5-trifluorophenyl)-1H-1,2,3-triazol-1-yl)tetrahydro-2H-pyran-3-ol], under setting [1], the IC50 is 70 nM.

Take `Cc1nc2ccc(-n3cnnc3[C@@H]3O[C@H](CO)[C@H](O)[C@H](n4cc(-c5ccc(Cl)c(F)c5)nn4)[C@H]3O)cc2s1` [Example 303]: the IC50 (read-out: hGal3 IC50) worked out at 23 nM.

As to `Cc1nc2ccc(-n3ncnc3[C@@H]3O[C@H](CO)[C@H](O)[C@H](n4cc(-c5cc(C)c(C#N)c(F)c5)nn4)[C@H]3O)cc2s1` [Example 236], where the note is “read-out: hGal3 IC50”, the IC50 was 240 nM.

Take `Cc1nc([C@@H]2O[C@H](CO)[C@H](O)[C@H](n3cc(-c4ccc(Br)c(F)c4)nn3)[C@H]2O)n(-c2cc(Cl)cc3ncccc23)n1` [Example A17]: under “read-out: hGal IC50”, the concentration for half-maximal inhibition (IC50) stood at 82 nM.

Consider `Cc1nc([C@@H]2O[C@H](CO)[C@H](O)[C@H](n3cc(-c4ccc(Cl)c(F)c4)nn3)[C@H]2O)n(-c2cc(Cl)ccc2OC(F)(F)F)n1` [Example A20], for which, where the note is “read-out: hGal IC50”, the IC50 stood at 31 nM.

On to `OC[C@H]1O[C@@H](c2nncn2-c2cc(Cl)cc(C(F)(F)F)c2)[C@H](O)[C@@H](n2cc(-c3cc(F)c(F)c(F)c3)nn2)[C@H]1O` [Example 118], for which the IC50 under setting [1] came to 160 nM.

For the molecule `OC[C@H]1O[C@@H](c2ncnn2C2CCNCC2)[C@H](O)[C@@H](n2cc(-c3cc(F)c(F)c(F)c3)nn2)[C@H]1O` [Example 172], the IC50 under setting [1] is 3840 nM.

As to `OC[C@H]1O[C@@H](c2nncn2-c2ccc(Cl)c(Cl)c2)[C@H](O)[C@@H](n2cc(-c3cc(F)c(F)c(F)c3)nn2)[C@H]1O` [Example 131, (2S,3R,4R,5R,6R)-2-(4-(3,4-dichlorophenyl)-4H-1,2,4-triazol-3-yl)-6-(hydroxymethyl)-4-(4-(3,4,5-trifluorophenyl)-1H-1,2,3-triazol-1-yl)tetrahydro-2H-pyran-3,5-diol], the IC50 under setting [1] is 100 nM.

On to `Cc1nc([C@@H]2O[C@H](CO)[C@H](O)[C@H](n3cc(-c4ccc(Cl)cc4F)nn3)[C@H]2O)n(-c2cc(Cl)ccc2C(F)(F)F)n1` [Example A52], for which the IC50 (read-out: hGal IC50) worked out at 52 nM.

As for `Cc1nnc([C@@H]2O[C@H](CO)[C@H](O)[C@H](n3cc(-c4cc(F)c(Cl)c(F)c4)nn3)[C@H]2O)n1-c1cc(Cl)cc2cccnc12` [Example 319], where the note is “read-out: hGal3 IC50”, the IC50 came out at 14 nM.

Turning to `CC(C)(C)c1cnnn1[C@@H]1O[C@H](CO)[C@H](O)[C@H](n2cc(-c3cc(F)c(F)c(F)c3)nn2)[C@H]1O` [Example 10], the IC50 under setting [1] is 366 nM.

In the case of `Cc1nc([C@@H]2O[C@H](CO)[C@H](O)[C@H](n3cc(-c4ccc(Cl)c(F)c4)nn3)[C@H]2O)n(-c2cc(F)ccc2C(F)(F)F)n1` [Example 254], the IC50 (read-out: hGal3 IC50) was determined as 110 nM.

Turning to `Cc1nc([C@@H]2O[C@H](CO)[C@H](O)[C@H](n3cc(-c4cc(F)c(Cl)c(Cl)c4)nn3)[C@H]2O)n(-c2cc(Cl)ccc2OC(F)(F)F)n1` [Example A26], the IC50 (read-out: hGal IC50) amounted to 36 nM.

Regarding `Cc1ncc(-c2cccc(-n3ncnc3[C@@H]3O[C@H](CO)[C@H](O)[C@H](n4cc(-c5cc(F)c(F)c(F)c5)nn4)[C@H]3O)c2)s1` [Example 52], the IC50 under setting [1] was 300 nM.

Regarding `Cc1nc([C@@H]2O[C@H](CO)[C@H](O)[C@H](n3cc(-c4cc(F)c(Cl)c(F)c4)nn3)[C@H]2O)n(-c2cc(Cl)ccc2C(F)F)n1` [Example A60], where the note is “read-out: hGal IC50”, the half-inhibitory concentration (IC50) turned out to be 36 nM.

In the case of `COc1cc(-c2cn([C@H]3[C@@H](O)[C@@H](CO)O[C@@H](c4ncnn4-c4ccc5nc(C)sc5c4)[C@@H]3O)nn2)cc(F)c1F` [Example 232], the IC50 (read-out: hGal3 IC50) worked out at 40 nM.

For `OC[C@H]1O[C@@H](c2ncnn2-c2ccccc2)[C@H](O)[C@@H](n2cc(-c3cc(F)c(F)c(F)c3)nn2)[C@H]1O` [Example 20], the 50% inhibitory concentration (IC50) under setting [1] is 708 nM.

In the case of `Cn1ncc2ccc(-n3cnnc3[C@@H]3O[C@H](CO)[C@H](O)[C@H](n4cc(-c5cc(F)c(F)c(F)c5)nn4)[C@H]3O)cc21` [Example 166], the IC50 under setting [1] was found to be 150 nM.

For the molecule `OC[C@H]1O[C@@H](c2ncnn2-c2ccc3ncsc3c2)[C@H](O)[C@@H](n2cc(-c3cc(F)c(F)c(F)c3)nn2)[C@H]1O` [Example 46], under setting [1], the IC50 is 40 nM.

`Cc1nc([C@@H]2O[C@H](CO)[C@H](O)[C@H](n3cc(-c4cc(F)c(Cl)c(F)c4)nn3)[C@H]2O)n(-c2cc(C(F)F)ccc2Cl)n1` [Example A43]: the IC50 (read-out: hGal IC50) worked out at 50 nM.

As for `Cc1nnc([C@@H]2O[C@H](CO)[C@H](O)[C@H](n3cc(-c4ccc(Br)c(F)c4)nn3)[C@H]2OCC(F)F)n1-c1cc(Cl)ccc1C(F)(F)F` [Example 325, (2R,3R,4S,5R,6S)-4-(4-(4-bromo-3-fluorophenyl)-1H-1,2,3-triazol-1-yl)-6-(4-(5-chloro-2-(trifluoromethyl)phenyl)-5-methyl-4H-1,2,4-triazol-3-yl)-5-(2,2-difluoroethoxy)-2-(hydroxymethyl)tetrahydro-2H-pyran-3-ol], the IC50 under setting [1] is 20 nM.

With `OC[C@H]1O[C@@H](c2nncn2-c2ccc(-c3nnn[nH]3)cc2)[C@H](O)[C@@H](n2cc(-c3cc(F)c(F)c(F)c3)nn2)[C@H]1O` [Example 111], the IC50 under setting [1] worked out at 820 nM.

Turning to `OC[C@H]1O[C@@H](c2ncnn2-c2ccccc2F)[C@H](O)[C@@H](n2cc(-c3cc(F)c(F)c(F)c3)nn2)[C@H]1O` [Example 40], the IC50 under setting [1] was found to be 1020 nM.

For the molecule `COc1cc(F)c(F)cc1-c1cn([C@H]2[C@@H](O)[C@@H](CO)O[C@@H](c3ncnn3-c3ccc4nc(C)sc4c3)[C@@H]2O)nn1` [Example 233], for the setting “read-out: hGal3 IC50”, the IC50 stood at 240 nM.

Consider `COc1cccc(-c2cnnn2[C@H]2C[C@@H](n3cc(-c4cc(F)c(F)c(F)c4)nn3)[C@@H](O)[C@@H](CO)O2)c1` [Example 16], for which the IC50 under setting [1] turned out to be 609 nM.

`Cc1nc([C@@H]2O[C@H](CO)[C@H](O)[C@H](n3cc(-c4cc(F)c5ccccc5c4)nn3)[C@H]2O)n(-c2ccc3ncsc3c2)n1` [Example A70]: where the note is “read-out: hGal IC50”, the IC50 was found to be 15 nM.

For the molecule `Cc1nc2ccc(-n3ncnc3[C@@H]3O[C@H](CO)[C@H](O)[C@H](n4cc(-c5ccc(C6CC6)c(F)c5)nn4)[C@H]3O)cc2s1` [Example 201, (2R,3R,4R,5R,6S)-4-(4-(4-cyclopropyl-3-fluorophenyl)-1H-1,2,3-triazol-1-yl)-2-(hydroxymethyl)-6-(1-(2-methylbenzo[d]thiazol-6-yl)-1H-1,2,4-triazol-5-yl)tetrahydro-2H-pyran-3,5-diol], the IC50 under setting [1] was 350 nM.

For `Cc1nc2ccc(-n3ncnc3[C@@H]3O[C@H](CO)[C@H](O)[C@H](n4cc(C(=O)NC5CCCCC5)nn4)[C@H]3O)cc2s1` [Example 198], under setting [1], the IC50 is 1020 nM.

On to `Cc1nc2ccc(-n3ncnc3[C@@H]3O[C@H](CO)[C@H](O)[C@H](n4cc(-c5cc(N)c(F)c(F)c5)nn4)[C@H]3O)cc2s1` [Example 218], for which the IC50 (read-out: hGal3 IC50) stood at 20 nM.

Regarding `O=C(O)CO[C@@H]1[C@@H](n2cc(-c3cc(F)c(F)c(F)c3)nn2)[C@@H](O)[C@@H](CO)O[C@H]1n1nncc1-c1cccc(Cl)c1` [Example 14], the IC50 under setting [1] came out at 8430 nM.

On to `OC[C@H]1O[C@@H](c2nncn2-c2ccc3ccncc3c2)[C@H](O)[C@@H](n2cc(-c3cc(F)c(F)c(F)c3)nn2)[C@H]1O` [Example 126], for which, under setting [1], the IC50 is 270 nM.

With `Cc1nc2ccc(-n3c([C@H]4C[C@@H](n5cc(-c6cc(F)c(F)c(F)c6)nn5)[C@@H](O)[C@@H](CO)O4)nnc3C(F)(F)F)cc2s1` [Example 281, (2R,3R,4R,6R)-2-(hydroxymethyl)-6-(4-(2-methylbenzo[d]thiazol-6-yl)-5-(trifluoromethyl)-4H-1,2,4-triazol-3-yl)-4-(4-(3,4,5-trifluorophenyl)-1H-1,2,3-triazol-1-yl)tetrahydro-2H-pyran-3-ol], the IC50 under setting [1] turned out to be 80 nM.

For `CNC(=O)c1nnc([C@@H]2O[C@H](CO)[C@H](O)[C@H](n3cc(-c4cccc(F)c4)nn3)[C@H]2O)o1` [Example 295, 5-((2R,3R,4S,5R,6R)-4-(4-(3-fluorophenyl)-1H-1,2,3-triazol-1-yl)-3,5-dihydroxy-6-(hydroxymethyl)tetrahydro-2H-pyran-2-yl)-N-methyl-1,3,4-oxadiazole-2-carboxamide], the IC50 under setting [1] turned out to be 14400 nM.

The values above are taken from patent US11267811B2, “Small molecule inhibitors of galectin-3” (BRISTOL-MYERS SQUIBB COMPANY, priority 2017, dated 2022).
